“Also recorded” adds a separate entry of the source.
Columns and labels:
[1] = tested on: murine femoral artery wire injury model (neointimal hyperplasia); assay: Femoral artery wire injury model, morphometry of neointimal formation; assay type: in vivo, mouse; set-up: Lumen / Media / Intima / TVA (total vessel area): unit not given here
From the text: Animal Models and Drug Treatments. Wild type C57BL/6J background mice and mice deficient for leptin (C57BL/6J-Lepob; ob/ob) or the leptin receptor (C57BL/6J-m+/+Lepdb; db/db) were purchased from Charles Jackson Laboratories, Maine. Mice were obtained at ages 6-8 weeks old and average weight 15 g. Animals were fed standard rodent chow and tap water ad libitum. Procedures and animal care were approved by the Institutional Animal Care and Use Committee. Mice were subjected to femoral artery wire injury or sham injury described below 24 hr prior to starting pharmacological treatments. Sirolimus was administered by intraperitoneal injection once per day for 14 days as a suspension in 0.2% sodium carboxymethyl cellulose and 0.25% polysorbate-80; duplicate experiments were accomplished with 0.5% DMSO. Leptin or LY294002 was administered by intraperitoneal injection once per day for 14 days as a suspension in PBS. Plasma leptin levels were measured at baseline, 3, 6, and 10 hr after leptin injection using an ELISA assay (R&D). Leptin plus the vehicle used for both sirolimus and LY294002 was used as the control group for the treatment groups with sirolimus and LY294002. After the 2-week treatment, animals were processed for femoral artery morphometry.
Femoral Artery Injury Model. Endoluminal injury of bilateral femoral arteries was performed according to the method of Roque et al. with minor modification 27. […] Briefly, to denude and dilate femoral arteries, a 0.014″ angioplasty guidewire (Guidant) was passed endoluminally 3 times to the level of the aortic bifurcation. A sham protocol was performed where the arteries underwent dissection, clamping, and ligature without passage of the guidewire.
Computer-aided quantitative morphometry to measure luminal, medial, intimal, and vessel areas were performed as previously described 27 with minor modification. Mice were euthanized via CO2 asphyxiation prior to en bloc excision of hind limbs. Briefly, multiple segments of the common femoral artery at the level of injury were fixed in 10% Zinc Formalin, embedded in paraffin, sectioned at […] thickness, and subjected to Elastic-Van Gieson staining at a Columbia University Core Histology facility. In many cases, arteries underwent immunohistochemical staining for smooth muscle a-actin to highlight the media and neointima. Photomicrographs were captured on Adobe Photoshop 7.0 and transferred to Scion Image software for quantitative analysis. Specimens were analyzed by two independent operators blinded to the treatment groups. Microsoft Excel software was used to calculate the RNI values from I/M ratios in the absence and presence of pharmacological inhibitors, as detailed in the text.
Surgical Procedures: The mouse femoral artery wire injury model of was used with minor modifications (Roque M, et al., Arterioscler Thromb Vasc Biol, 2000, 20(2):335-42). Briefly, forty-two male mice were studied. Endoluminal injury to the common femoral artery was produced by either 3 passages of a 0.014″ diameter angioplasty guidewire (Guidant, Santa Clara, Calif.). […] While being viewed under a surgical microscope, a groin incision was made and the femoral artery was isolated and temporarily clamped distal to the inguinal ligament. An arteriotomy was performed and the guidewire was passed 3 times to the level of the aortic bifurcation. The artery was then ligated proximal to the arteriotomy. A sham protocol was carried out on the contralateral side where the arteries underwent dissection, temporary clamping, and ligature, without passage of the wire. The formation of the neointima was confirmed in this model as being comprised mainly of VSMCs through immunohistochemical staining of representative sections for α-smooth muscle actin via a commercial kit (Sigma).
For all treatment protocols, rapamycin was administered by intraperitoneal injection once per day, for 14 days, as a suspension in 0.2% sodium carboxymethyl cellulose and 0.25% polysorbate-80. […]

[2] = tested on: primary murine aortic vascular smooth muscle cells (VSMC); assay: VSMC proliferation assay (Coulter counter / MTS-based); assay type: cell-based, mouse
Protocol: The methods used in the above experiments were as follows: Cell Culture and VSMC Proliferation Assays. Primary VSMC were isolated from aortic explants of wildtype, ob/ob, or db/db mice in the method of Roque et al. 30. VSMC were routinely cultured in Dulbecco's Modified Eagle's Medium (DMEM) containing either 4500 or 1250 mg/L glucose supplemented with 20% FBS at 37° C. in a 5% CO2 incubator. […] Cells were plated at 200,000 cells/ well of a 6 well dish and subsequently serum starved for 72 hr in DMEM media supplemented with 0.1 % FBS. Leptin dissolved in PBS was added directly to serum-free media at concentrations of 1, 10, or 100 ng/ml with […] LY294002 or U0126, and cells were grown for another 72 hr before harvesting. VSMC proliferation was measured by counting samples using a Coulter counter or using the Cell Titre 96 Aqueous One Solution Cell Proliferation Assay kit (Promega). Cell viability was assessed by Trypan Blue staining.
Proliferation of VSMCs: VSMC proliferation was measured by counting triplicate samples using a Coulter counter or using the CellTitier 96 Aqueous One Solution Cell Proliferation Assay (Promega, Madison, Wis.) kit per manufacturer's instructions. Cell viability was assessed via staining with Trypan Blue.
Murine VSMCs (2×10^4 cells/well) were incubated in a 6-well tissue culture plate for 72 hours in DMEM containing 0.1% FBS with or without insulin (10 or 100 nmol/L) and with 0, 1, 10, or 100 nmol/L rapamycin. Triplicate samples were counted using a Coulter counter and were normalized as percentage of the control group. Cell viability was checked via Trypan blue staining.
Murine VSMCs, seeded 2×10^4 cells/well in a 6-well plate, were starved for 72 hrs in DMEM with 0.1% FBS. Rapamycin, leptin, or insulin in different concentrations indicated in the figure were incubated with VSMCs in DMEM with 0.1% of FBS for 72 hrs. Triplicate samples were counted via a Coulter counter. Cell viability was checked via Trypan blue staining. […] In panel C, VSMCs were exposed to U0126, a specific MEK1/2 inhibitor, or LY294002, a specific PI3K inhibitor.
Primary VSMC were isolated from aortic explants of WT, ob/ob, or db/db mice (46). VSMC proliferation was determined using the Cell Titre Aqueous One Solution Proliferation Assay (Promega, Madison, Wis.). Migration to PDGF-BB was assessed in a modified Boyden chamber assay (47).

[3] = wire injury, leptin 0.4 mg/kg daily i.p. 14 days, mean ± SD

Substance: Leptin: recombinant leptin; hormone derived from adipose tissue, encoded by the Ob gene
- intimal area and intimal:media ratio ([1]; Example 2, leptin 0.4 mg/kg/d i.p. 14 days vs vehicle): significantly increased
- I/M (intima:media ratio) [1, 3]: 1.883 ± 0.140
- Intima [1, 3]: 0.028 ± 0.004
- Lumen [1, 3]: 0.010 ± 0.004
- Media [1, 3]: 0.015 ± 0.001
- TVA (total vessel area) [1, 3]: 0.053 ± 0.007
- VSMC proliferation ([2]; Example 2, high (4500 mg/L) and normal (1250 mg/L) glucose, various leptin concentrations): potentiated the proliferation of VSMCs in a dose-dependent manner
- VSMC proliferation ([2]; co-incubation of leptin 100 ng/ml with insulin 10 nmol/L): ~80%
- VSMC proliferation ([2]; leptin receptor-defective (db/db) VSMC, leptin 1, 10, 100 ng/ml): not
- VSMC proliferation ([2]; leptin-deficient (ob/ob) VSMC, leptin 1, 10, 100 ng/ml): induced dose-dependent VSMC proliferation; also recorded: can induce VSMC proliferation; also recorded: increased
- VSMC proliferation ([2]; wild type C57BL/6J VSMC, leptin 1, 10, 100 ng/ml (0.06, 0.6, 6 nM), 72 h, vs vehicle): increased murine VSMC proliferation in a dose-dependent fashion
- VSMC proliferation ([2]; wild type C57BL/6J VSMC, leptin 1, 10, 100 ng/ml (0.06, 0.6, 6 nM), 72 h, vs vehicle, listed as leptin): increased

— patent publication US20090274739A1, “METHODS AND COMPOSITIONS FOR TREATING NEOINTIMAL HYPERPLASIA” (THE TRUSTEES OF COLUMBIA UNIVERSITY IN THE CITY OF NEW YORK, priority 2006, published 2009)
